The target of one series is T1, hPPARalpha (Homo sapiens, UniProt Q07869).
T1 construct: expressed in transfected cells; host or cells: COS-7 (monkey kidney fibroblasts)
T1 sequence (Q07869 239-466 limits assumed): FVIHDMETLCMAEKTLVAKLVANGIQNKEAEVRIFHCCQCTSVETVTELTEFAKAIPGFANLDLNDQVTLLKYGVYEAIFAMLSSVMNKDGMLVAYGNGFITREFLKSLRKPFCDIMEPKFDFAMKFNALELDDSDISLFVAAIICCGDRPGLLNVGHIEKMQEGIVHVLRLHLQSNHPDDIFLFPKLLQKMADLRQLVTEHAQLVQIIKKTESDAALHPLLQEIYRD
Put plainly: PPAR activation: Gal4-hPPARα chimera luciferase transactivation in COS-7 cells, Method 2. Type of series: cell-based. The note with it: COS-7, 24 h; for EC50: 1% Ultroser; for Emax: maximum percentage response relative to the reference phenofibric acid, read-out: hPPARalpha % max. Here is the method: (§1) The activation of the PPARs was evaluated in vitro on a line of monkey kidney fibroblasts (COS-7) by measuring the transcriptional activity of chimeras constituted of the DNA binding domain of the Gal4 transcription factor of yeast and the ligand binding domain of the various PPARs. The compounds were tested at doses between 10^−5 and […] on the chimeras Gal4-PPARα, γ or δ, and the corresponding EC50 values were determined.
(§2) The principle, the cells and the plasmids used for example 5 were also employed in this example. Only the application of the transfection stage is slightly different. The details are presented below.
(§3) The adherent COS-7 cells are transfected with 40 μg of DNA per 225 cm^2 dish, with a pGal4-PPAR/Gal4(RE)_TkpGL3 ratio of 1/10, in the presence of 10% fetal calf serum. The cells are then detached and seeded in the absence of serum in 384-well plates (2×10^4 cells/well) and incubated for 4 hours at 37° C. The compounds are then diluted in a 96-well plate and transferred to the 384-well plate. Activation with the test compounds is carried out for an additional 24 h at 37° C. in the presence of 1% of Ultroser™ lipid-free synthetic serum (Biosepra). These last 2 stages are automated using a Genesis Freedom 200™ station (Tecan). At the end of the experiment, the cells are lysed and the luciferase activity is determined using the Steady-Lite™ HTS (Perkin Elmer) following the supplier's recommendations.

The next series has as its target T2, hPPARgamma (Homo sapiens, UniProt P37231).
T2 construct: expressed in transfected cells; host or cells: COS-7 (monkey kidney fibroblasts)
T2 sequence (P37231 238-503 limits assumed): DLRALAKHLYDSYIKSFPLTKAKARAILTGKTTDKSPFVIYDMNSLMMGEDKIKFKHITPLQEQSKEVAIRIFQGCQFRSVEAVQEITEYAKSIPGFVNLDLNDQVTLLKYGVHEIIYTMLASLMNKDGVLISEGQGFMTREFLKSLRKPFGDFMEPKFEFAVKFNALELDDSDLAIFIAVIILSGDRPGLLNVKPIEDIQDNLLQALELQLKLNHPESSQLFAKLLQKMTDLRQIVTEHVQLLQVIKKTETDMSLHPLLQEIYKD
The series is described as follows: PPAR activation: Gal4-hPPARγ chimera luciferase transactivation in COS-7 cells, Method 2. Type of series: cell-based. The following applies: COS-7, 24 h; for EC50: 1% Ultroser. The method, then: The activation of the PPARs was evaluated in vitro on a line of monkey kidney fibroblasts (COS-7) by measuring the transcriptional activity of chimeras constituted of the DNA binding domain of the Gal4 transcription factor of yeast and the ligand binding domain of the various PPARs.
Only the application of the transfection stage is slightly different. The details are presented below.
as §3

In a further series the target is T3, hPPARdelta (Homo sapiens, UniProt Q03181).
T3 construct: expressed in transfected cells; host or cells: COS-7 (monkey kidney fibroblasts)
T3 sequence (Q03181 211-439 limits assumed): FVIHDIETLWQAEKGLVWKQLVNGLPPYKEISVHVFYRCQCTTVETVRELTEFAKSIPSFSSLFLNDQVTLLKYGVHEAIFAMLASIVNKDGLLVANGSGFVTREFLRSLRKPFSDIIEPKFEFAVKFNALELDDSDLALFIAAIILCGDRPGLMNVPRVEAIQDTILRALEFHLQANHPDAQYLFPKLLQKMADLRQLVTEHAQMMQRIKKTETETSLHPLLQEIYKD
Put plainly: PPAR activation: Gal4-hPPARδ chimera luciferase transactivation in COS-7 cells, Method 2. Type of series: cell-based. The note with it: COS-7, 24 h; for EC50: 1% Ultroser; for Emax: maximum percentage response relative to the reference GW501516, read-out: hPPARdelta % max. The method, then:
as §1, §2, §3

Where [1] appears, read: maximum percentage response relative to the reference rosiglitazone, Method 2, read-out: hPPARgamma % max.
[2] abbreviates: Method 2, read-out: hPPARgamma EC50.

“And” between values parts separate entries of the source, which are not always exact repeats. Equal values may be shown once. Read-outs that look alike come from different tables or passages of the source.

In turn, `CC(C)OC(CCc1ccc(OC(C)(C)C(=O)O)c(Cl)c1Cl)c1ccc(-c2ccc(C(F)(F)F)cc2)s1` (stereo not shown) [Compound 55, 2-(2,3-dichloro-4-(3-isopropoxy-3-(5-(4-(trifluoromethyl)-phenyl)thien-2-yl)propyl)phenoxy)-2-methylpropanoic acid] gave a melting point of 88 to 90 °C. On hPPARalpha, the midpoint of the response, the EC50, lay at 2800 nM and the Emax came out at 25%. The Emax on hPPARgamma (setting [1]) stood at 2%. For the same molecule, at hPPARdelta, the EC50 turned out to be 4710 nM and the Emax is 34%.
In the case of `O=C(O)COc1ccc(CCC(=O)c2ccc(-c3ccc(C(F)(F)F)cc3)s2)cc1F` [Compound 25, 2-(2-fluoro-4-(3-oxo-3-(5-(4-(trifluoromethyl)phenyl)thien-2-yl)-propyl)phenoxy)acetic acid], the melting point was in the range of 170 to 171 °C. Moreover, at hPPARalpha, a half-maximal effect (EC50) was put at 1680 nM and the Emax stood at 55%. Moreover, on hPPARgamma (setting [1]), the Emax amounted to 27%. Also, the EC50 on hPPARgamma (setting [2]) is 36500 nM. In addition, on hPPARdelta, the EC50 worked out at 7450 nM and the Emax was 75%.
`CC(C)(Oc1ccc(CCC(=O)c2ccc(-c3ccccc3)s2)c(Cl)c1Cl)C(=O)O` [Compound 57, 2-(2,3-dichloro-4-(3-oxo-3-(5-phenylthien-2-yl)propyl)phenoxy)-2-methylpropanoic acid] gave a melting point of 179 to 180 °C. For the same molecule, on hPPARalpha, the midpoint of the response, the EC50, lay at 1000 nM and the Emax turned out to be 44%. The Emax at hPPARgamma (setting [1]) is 39%. Moreover, on hPPARgamma (setting [2]), the EC50 turned out to be 1520 nM. Moreover, at hPPARdelta, it took 350 nM to reach a half-maximal effect (EC50) and the Emax stood at 88%.
Consider `CON=C(CCc1ccc(OC(C)(C)C(=O)O)c(Cl)c1Cl)c1ccc(-c2ccc(C(F)(F)F)cc2)s1` (mixture of isomers) [Compound 50, 2-(2,3-dichloro-4-(3-(methoxyimino)-3-(5-(4-(trifluoromethyl)-phenyl)thien-2-yl)propyl)phenoxy)-2-methylpropanoic acid], for which the melting point fell in the range of 68 to 69 °C. Also, at hPPARalpha, the EC50 stood at 260 nM and the Emax amounted to 38%. Moreover, the Emax on hPPARgamma (setting [1]) worked out at 32%. Further, on hPPARgamma (setting [2]), the EC50 came out at 270 nM. Further, on hPPARdelta, the EC50 was 50 nM and the Emax came out at 78%.
In turn, `Cc1cc(CCC(=O)c2ccc(-c3ccc(C(F)(F)F)cc3)s2)ccc1OC(C)(C)C(=O)O` [Compound 59, 2-methyl-2-(2-methyl-4-(3-oxo-3-(5-(4-(trifluoromethyl)phenyl)-thien-2-yl)propyl)phenoxy)propanoic acid] came in with a melting point of 130 to 131 °C. Moreover, the Emax at hPPARalpha was found to be 47%. Besides, the Emax at hPPARgamma (setting [1]) was found to be 57%. Besides, at hPPARgamma (setting [2]), the concentration for a half-maximal effect (EC50) came out at 230 nM. Also, on hPPARdelta, the EC50 is 30 nM and the Emax was found to be 107%.
Consider `CC(C)(Oc1ccc(CCC(=O)c2ccc(-c3ccc(Br)cc3)s2)c(Cl)c1Cl)C(=O)O` [Compound 52, 2-(4-(3-(5-(4-bromophenyl)thien-2-yl)-3-oxopropyl)-2,3-dichloro-phenoxy)-2-methylpropanoic acid], for which the melting point lay within 155 to 157 °C. Besides, on hPPARalpha, a half-maximal effect (EC50) was put at 210 nM and the Emax was 53%. Moreover, the Emax at hPPARgamma (setting [1]) is 57%. On hPPARgamma (setting [2]), the half-maximal effective concentration (EC50) amounted to 1020 nM. Besides, on hPPARdelta, the response was half-maximal at 50 nM (EC50) and the Emax is 104%.
Consider `CSc1ccc(-c2ccc(C(=O)CCc3ccc(OC(C)(C)C(=O)O)c(Cl)c3Cl)s2)cc1` [Compound 54, 2-(2,3-dichloro-4-(3-(5-(4-(methylthio)phenyl)thien-2-yl)-3-oxo-propyl)phenoxy)-2-methylpropanoic acid], for which the melting point was 171 to 172 °C. On hPPARalpha, a half-maximal effect (EC50) was put at 150 nM and the Emax amounted to 43%. For the same molecule, the Emax at hPPARgamma (setting [1]) came to 62%. The EC50 on hPPARgamma (setting [2]) is 860 nM. Besides, on hPPARdelta, the EC50 came to 70 nM and the Emax was determined as 107%.
Take `CC(C)(Oc1ccc(CCC(=O)c2ccc(-c3ccc(C(F)(F)F)cc3)o2)c(Cl)c1Cl)C(=O)O` [Compound 38, 2-(2,3-dichloro-4-(3-oxo-3-(5-(4-(trifluoromethyl)phenyl)fur-2-yl)-propyl)phenoxy)-2-methylpropanoic acid]: the melting point is 85 °C. Further, at hPPARalpha, the EC50 was 200 nM and 320 nM; the Emax was found to be 44%. Further, on hPPARgamma (read-out: hPPARgamma % max, maximum percentage response relative to the reference rosiglitazone, Method 2), the Emax amounted to 37%. The EC50 on hPPARgamma (hPPARgamma EC50, Method 2) was 1840 nM and 810 nM. Moreover, at hPPARdelta, the EC50 is 14 nM and 9 nM; the Emax worked out at 89%.
For the molecule `CC(C)(Oc1ccc(CCC(=O)c2ccc(-c3ccc(C(F)(F)F)cc3)s2)cc1)C(=O)O` [Compound 67, 2-(4-(3-oxo-3-(5-(4-(trifluoromethyl)phenyl)thien-2-yl)propyl)-phenoxy)-2-methylpropanoic acid], the melting point fell in the range of 154 to 155 °C. In addition, on hPPARalpha, a half-maximal response (EC50) required 10 nM and the Emax is 45%. The Emax at hPPARgamma (setting [1]) is 37%. Moreover, on hPPARgamma (setting [2]), the EC50 is 4820 nM. In addition, on hPPARdelta, a half-maximal effect (EC50) was put at 360 nM and the Emax was 75%.

In general, EC50 refers to the concentration at which the effect is half-maximal. What is called melting point is the temperature of the solid-liquid transition.
